In patent US8853242B2, “Nitrogenous-ring acylguanidine derivative” (Astellas Pharma Inc., priority 2009, dated 2014):
Counter-ions that a name gives are not always drawn.

Molecular target: human 5-HT5A receptor (Homo sapiens (Human), UniProt P47898)
Experiment: Test on a human 5-HT5A receptor binding inhibition ([3H]5-CT)
Details: [3H]5-CT binding inhibition, membrane from HEK293 cells expressing human 5-HT5A receptor; Ki calculated from IC50
Method: The ORF (open reading frame; protein coding region) of a human 5-HT5A receptor (Genbank AF498985) was cloned from a human hippocampus cDNA library, and then inserted into a pCR2.1 vector (Invitrogen), and Escherichia coli containing the plasmid was cultured in a large amount. Next, the full-length cDNA sequence of the human 5-HT5A receptor was analyzed, and recombined into a pCDNA3.1 vector (Invitrogen) as an expression vector and cultured in a large amount. HEK293 established cells (ATCC) derived from the human fetal kidney were seeded, the expression plasmid (1 μg) obtained above were added thereto with LIPOFECTAMINE 2000 (Invitrogen; 2 μl), the gene was transfected into HEK293 cells, and the expression cells were screened with a drug-resistant marker, Geneticin (G418 sulfate 500 μg/ml; Kanto Chemical Co., Inc.). Thus prepared recombinant cells which expressed the gene were cultured in a medium containing D-MEM (Dulbecco's modified eagle medium, Sigma), 10% FCS (Fetal calf serum: fetal bovine serum), 1% Pc./Sm (Penicillin/Streptomycin, Invitrogen), and 500 μg/ml G418 for 3 days. These experimental operations followed a manual for gene operation experiment and an instruction appended in a reagent, and the like, such as a known method (Sambrook, J. et al, Molecular Cloning-A Laboratory Manual”, Cold Spring Harabor laboratory, NY, 1989).
HEK293 cells for forced expressions of a human 5-HT5A receptor were cultured in a F500 plate, and scraped with a scraper. After centrifugation, the precipitate was collected, and an incubation buffer (50 mM Tris (HCl) (pH 7.4), 10 mM MgSO4, and 0.5 mM EDTA (ethylenediamine tetraacetic acid)) was added thereto. After homogenization, it was further centrifuged, and the incubation buffer was added to the precipitate, followed by thoroughly suspending. The operation was repeated, and protein concentration was measured, thereby completing preparation of the membrane.
A solution of the compound to be tested and 100 μM 5-CT (5-carboxamidetriptamine) in DMSO was added to a 96-well plate at 2 μl/well, suspended in an incubation buffer, and a membrane from HEK293 cells for forced expressions of a human 5-HT5A receptor prepared at 200 μg/ml was added at 100 μl/well. After incubation at room temperature for 15 minutes, a [^3H]5-CT solution (2 nM [^3H]5-CT, incubation buffer) was added thereto at 100 μl/well.
Separately, 100 μl of the solution was distributed into a liquid scintillation vial, and 2 ml of Aquasol II (registered trademark) was added thereto, followed by stirring. Then, radioactivity was measured by a liquid scintillation counter. It was incubated at 37° C. for 60 minutes. The reaction mixture was sucked into 96-well GF/C filter plate that had been pre-treated with 0.2% polyethyleneimine, and washed six times with an ice-cooled, 50 mM Tris (pH 7.5) buffer. The GF/C filter plate was dried.
Microscint TMPS (registered trademark) was added thereto at 40 μl/well. Radioactivity remaining on the GF/C filter plate was measured by a top counter.
The [^3H]5-CT binding inhibiting activity by the compound to be tested in each experiment was determined as an IC50 value with a radioactivity upon addition of DMSO alone being 0% inhibition, and a radioactivity upon addition of 1 μM 5-CT being 100% inhibition. Separately, Ki values were calculated from the Kd value of the [^3H]5-CT determined from Scatchard analysis, by the following equation. Ki=IC50(1+Concentraion of ligand added/Kd(4.95 nM))

human 5-HT5A receptor, sequence (P47898 whole entry): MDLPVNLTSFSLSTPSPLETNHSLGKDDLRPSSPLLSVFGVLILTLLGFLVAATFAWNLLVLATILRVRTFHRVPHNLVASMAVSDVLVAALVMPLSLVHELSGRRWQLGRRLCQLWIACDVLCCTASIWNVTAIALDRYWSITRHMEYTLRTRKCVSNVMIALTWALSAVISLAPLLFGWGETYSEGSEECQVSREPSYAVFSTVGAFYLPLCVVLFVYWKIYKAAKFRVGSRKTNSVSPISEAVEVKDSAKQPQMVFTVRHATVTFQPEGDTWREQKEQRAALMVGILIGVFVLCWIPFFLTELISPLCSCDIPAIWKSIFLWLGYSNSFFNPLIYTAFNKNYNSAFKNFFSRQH

Ki, 2.3 nM:
NC(N)=NC(=O)c1ccc2c(Cl)cnc(-c3ccc(F)cc3F)c2c1 [Example 211]

Ki, 1.3 nM:
NC(N)=NC(=O)c1ccc2ncc(Cl)c(-c3ccc(F)cc3F)c2c1 [Example 60]
Cc1cnc(-c2c(F)cc(F)cc2F)c2cc(C(=O)N=C(N)N)ccc12 [Example 152]

Ki, 4.7 nM:
NC(N)=NC(=O)c1ccc2c(F)cnc(-c3c(F)cncc3Cl)c2c1 [Example 164]

Ki, 3.7 nM:
Cc1nc2ccc(C(=O)N=C(N)N)cc2c(-c2c(F)cc(F)cc2F)c1C [Example 114]

Ki, 4.1 nM:
NC(N)=NC(=O)c1ccc2c(F)cnc(-c3ccc(F)cc3Cl)c2c1 [Example 151]

Ki, 6.2 nM:
NC(N)=NC(=O)c1ccc2c(F)cnc(-c3ncc(F)cc3Cl)c2c1 [Example 171]

Same assay, conditions: [3H]5-CT binding, membrane from HEK293 cells expressing human 5-HT5A receptor; Ki calculated from IC50

Ki, 10 to 100 nM:
COc1cc(F)c(-c2ccnc3ccc(C(=O)N=C(N)N)cc23)c(F)c1 [Example 59]
Cc1cc(C(=O)N=C(N)N)cc2c(C3CC3)c(Cl)cnc12 [Example 103]
NC(=O)c1cc(-c2c(F)cc(F)cc2F)c2cc(C(=O)N=C(N)N)ccc2n1 [Example 30]
NC(N)=NC(=O)c1ccc2nccc(-c3cc(Cl)ccc3Cl)c2c1 [Example 18]
NC(N)=NC(=O)c1ccc2nc(C(F)(F)F)cc(-c3c(F)cc(F)cc3F)c2c1 [Example 90]
Cc1cc(-c2c(F)cccc2Cl)c2cc(C(=O)N=C(N)N)ccc2n1 [Example 7]
Cc1cc(C(=O)N=C(N)N)cc2c(-c3ccc(Cl)cc3Cl)ccnc12 [Example 45]
NC(N)=NC(=O)c1ccc2c(C(F)(F)F)cnc(-c3c(F)cccc3F)c2c1 [Example 196]
NC(N)=NC(=O)c1ccc2c(CO)cnc(-c3c(F)cccc3F)c2c1 [Example 224]
Cc1nc2ccc(C(=O)N=C(N)N)cc2c(-c2c(F)cncc2F)c1C [Example 131]
NC(N)=NC(=O)c1ccc2c(F)cnc(-c3cccc(F)c3F)c2c1 [Example 205]
NC(N)=NC(=O)c1ccc2nccc(-c3cc(Cl)c(F)cc3F)c2c1 [Example 20]
CCc1cc(-c2c(F)cc(F)cc2F)c2cc(C(=O)N=C(N)N)ccc2n1 [Example 87]
COc1cc(Cl)ccc1-c1ncc(F)c2ccc(C(=O)N=C(N)N)cc12 [Example 204]
Cc1cc(C(=O)N=C(N)N)cc2c(-c3cc(F)ccc3Cl)ccnc12 [Example 64]
NC(N)=NC(=O)c1ccc2ncc(Cl)c(C3CC3)c2c1 [Example 76]
NC(N)=NC(=O)c1ccc2cncc(-c3ccc(F)cc3F)c2c1 [Example 228]
Cc1nc2ccc(C(=O)N=C(N)N)cc2c(-c2ccccc2Cl)c1C [Example 122]
COc1cc(C#N)ccc1-c1c(C)c(C)nc2ccc(C(=O)N=C(N)N)cc12 [Example 120]
NC(N)=NC(=O)c1ccc2c(C3CC3)cnc(-c3c(F)cccc3F)c2c1 [Example 156]
COc1cc(F)ccc1-c1ncc(F)c2ccc(C(=O)N=C(N)N)cc12 [Example 202]
NC(N)=NC(=O)c1ccc2c(CO)cnc(-c3c(F)cc(F)cc3F)c2c1 [Example 2, N-(diaminomethylene)-4-(hydroxymethyl)-1-(2,4,6-trifluorophenyl)isoquinoline-7-carboxamide fumarate]
Cc1cc(-c2ccccc2F)c2cc(C(=O)N=C(N)N)ccc2n1 [Example 82]

Ki, 100 to 300 nM:
N#Cc1ccccc1-c1nccc2ccc(C(=O)N=C(N)N)cc12 [Example 139]
NC(N)=NC(=O)c1ccc2nccc(-c3ccc(F)c(C(F)(F)F)c3)c2c1 [Example 37]
NC(N)=NC(=O)c1ccc2nc(C(F)(F)F)cc(-c3ccc(F)cc3F)c2c1 [Example 92]
NC(N)=NC(=O)c1ccc2cccc(-c3ccccc3)c2n1 [Example 225]

Ki, 1 to 10 nM:
Cc1cnc2ccc(C(=O)N=C(N)N)cc2c1-c1c(F)cc(F)cc1Cl [Example 23]
NC(N)=NC(=O)c1ccc2c(Cl)cnc(-c3cc(F)ccc3F)c2c1 [Example 214]
Cc1nc2ccc(C(=O)N=C(N)N)cc2c(-c2ccc(F)cc2Cl)c1C [Example 126]
Cc1nc2ccc(C(=O)N=C(N)N)cc2c(-c2c(F)cccc2F)c1F [Example 123]
NC(N)=NC(=O)c1ccc2nccc(-c3c(Cl)cc(Cl)cc3Cl)c2c1 [Example 27]
NC(N)=NC(=O)c1ccc2c(F)cnc(-c3c(F)cncc3Cl)c2c1 [Example 164]
NC(N)=NC(=O)c1ccc2cccc(-c3c(F)cc(F)cc3F)c2n1 [Example 226]
Cc1cnc(-c2c(F)cccc2Cl)c2cc(C(=O)N=C(N)N)ccc12 [Example 206]
NC(N)=NC(=O)c1ccc2c(Cl)cnc(-c3ccccc3F)c2c1 [Example 175]
NC(N)=NC(=O)c1ccc2ncc(Cl)c(-c3ccccc3)c2c1 [Example 74]
NC(N)=NC(=O)c1ccc2c(Cl)cnc(-c3ccc(F)cc3F)c2c1 [Example 211]
COc1cccc(F)c1-c1ncc(Cl)c2ccc(C(=O)N=C(N)N)cc12 [Example 166]
NC(N)=NC(=O)c1ccc2c(F)cnc(-c3ccc(F)cc3)c2c1 [Example 190]
Cc1nc2ccc(C(=O)N=C(N)N)cc2c(-c2ccccc2F)c1Cl [Example 89]
NC(N)=NC(=O)c1ccc2ncc(Cl)c(-c3ccncc3F)c2c1 [Example 104]
NC(N)=NC(=O)c1ccc2ncc(Cl)c(-c3ccccc3F)c2c1 [Example 69]
N#Cc1ccc(-c2nccc3ccc(C(=O)N=C(N)N)cc23)c(F)c1 [Example 141]
NC(N)=NC(=O)c1ccc2ccnc(-c3c(F)cccc3Cl)c2c1 [Example 134]
Cc1cc(-c2c(F)cc(F)cc2F)c2cc(C(=O)N=C(N)N)cc(C)c2n1 [Example 83]
Cc1cnc2ccc(C(=O)N=C(N)N)cc2c1-c1ccccc1F [Example 51]
Cc1cc(C(=O)N=C(N)N)cc2c(-c3c(F)cc(F)cc3Cl)ccnc12 [Example 65]
COc1cc(F)c(-c2ccnc3c(C)cc(C(=O)N=C(N)N)cc23)c(F)c1 [Example 58]
NC(N)=NC(=O)c1ccc2nccc(-c3c(F)cc(F)cc3Cl)c2c1 [Example 8]
NC(N)=NC(=O)c1ccc2ncc(Cl)c(C3=CCCC3)c2c1 [Example 107]
COc1cc(Cl)ccc1-c1ccnc2c(C)cc(C(=O)N=C(N)N)cc12 [Example 77]
NC(N)=NC(=O)c1ccc2nccc(-c3c(Cl)cccc3Cl)c2c1 [Example 19]
CN/C(N)=N/C(=O)c1ccc2nccc(-c3c(F)cc(F)cc3F)c2c1 [Example 3, N-[1-amino(methylamino)methylene]-4-(2,4,6-trifluorophenyl)quinoline-6-carboxamide dihydrochloride]
NC(N)=NC(=O)c1ccc2ccnc(-c3c(F)cc(F)cc3F)c2c1 [Example 1, N-(diaminomethylene)-1-(2,4,6-trifluorophenyl)isoquinoline-7-carboxamide dihydrochloride]
Cc1cc(C(=O)N=C(N)N)cc2c(-c3c(F)cccc3F)ccnc12 [Example 42]
NC(N)=NC(=O)c1ccc2c(F)cnc(-c3c(O)cccc3F)c2c1 [Example 216]
COc1cnc(-c2c(F)cccc2F)c2cc(C(=O)N=C(N)N)ccc12 [Example 197]
Cc1cc(C(=O)N=C(N)N)cc2c(-c3ccc(F)cc3F)c(Cl)cnc12 [Example 99]
NC(N)=NC(=O)c1ccc2ncc(Cl)c(C3=CCCCC3)c2c1 [Example 102]
